Assays:
P. aeruginosa ATCC 9721 = assay: MIC susceptibility testing, broth microdilution in CaMHB; assay type: cell-based, Pseudomonas aeruginosa; conditions: P. aeruginosa ATCC9721; Table 4A, different batches of cation-adjusted Muller-Hinton broth
In short: (§1)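 Growth inhibition was read as MIC after inoculation with a 100-fold dilution of log-phase culture at OD600 0.2-0.3, […]. That subculture came from an 18-20 hour CaMHB overnight at 37° C, 250 rpm. Tests were duplicated.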

P. aeruginosa ATCC10145 = assay: as above; assay type: cell-based, Pseudomonas aeruginosa; conditions: Table 4A, different batches of cation-adjusted Muller-Hinton broth
In short: as §1

[1] = test system: P. aeruginosa ATCCCRM-9027; assay: as above; assay type: cell-based, Pseudomonas aeruginosa; conditions: P. aeruginosa AATCCRM 9027; Table 4A, different batches of cation-adjusted Muller-Hinton broth
In short: as §1

P. aeruginosa ATCC27853 = assay: as above; assay type: cell-based, Pseudomonas aeruginosa; conditions: Table 4A, different batches of cation-adjusted Muller-Hinton broth
In short: as §1

[2] = test system: E. coli clinical isolates and resistant strains; assay type: cell-based; conditions: E. coli
Protocol: (§2) The in vitro antibacterial activities of the compounds of examples 2 and 6 were evaluated against a panel of […] Gram-negative bacterial isolates alongside Colistin. The panel consisted of 100 clinical isolates of each of A. baumannii, E. coli, K. pneumoniae and P. aeruginosa. The panel represented the current epidemiology in Europe and the USA and included a number of relevant strains with defined resistant phenotypes to current clinically-used antibacterial agents. These resistant strains included 20 A. baumannii, 22 E. coli, 25 K. pneumoniae and 20 P. aeruginosa strains.
(§3) All compounds were tested up to a maximum concentration of 64 μg/mL with the exception of colistin, which was evaluated up to a maximum concentration of 16 μg/mL.

[3] = test system: P. aeruginosa clinical isolates and resistant strains; assay type: cell-based; conditions: P. aeruginosa
Protocol: as §2, §3

[4] = test system: A. baumannii clinical isolates and resistant strains; assay type: cell-based; conditions: A. baumannii
Protocol: as §2, §3

[5] = test system: K. pneumoniae clinical isolates and resistant strains; assay type: cell-based; conditions: K. pneumoniae
Protocol: as §2, §3

HK-2 cell line = conditions: 24 h incubation, resazurin reduction; Table 7A; footnote c: solubility issues noted at top concentration
Protocol: The renal cell toxicity of the compounds was assessed in an in vitro assay using the HK-2 cell line, an immortalized proximal tubule cell line derived from a normal human kidney. The endpoint to describe the toxicity of the compounds was the reduction of resazurin correlating with the metabolic activity of the cells.
Cells were cultured in 150 cm^2 flasks in 25 mL supplemented KSF (with 5 ng/mL EGF and 50 μg/mL BPE). Cells were maintained at 70% confluence with a maximum of 25 passages. Day 1: Media was removed and cells were washed with 10 ml DPBS. […] After 1 to 2 minutes incubation, 14 ml media was added to the flask to inactivate the trypsin. The cell suspension was transferred to a centrifuge tube and the cells pelleted at 1000 rpm for 6 minutes. The cell pellet was then resuspended in fresh media supplemented with EGF and BPE. […] 7500 cells were dispensed in each well in a volume of 160 μl and incubated at 37° C. for 24 h.
Day 2: Test compounds were prepared directly into the media. […] The microtiter plates were removed from the incubator and the media replaced with 100 μl of the dilutions of the compound solution. Every set of concentration was done in triplicate, and positive and negative controls were added to each plate. The plates were then incubated for 24 h at 37° C. with 5% CO2 in a humidified atmosphere.
Day 3: The reagent containing the resazurin (CellTiter-Blue, Promega) was diluted in PBS (1:4) and added at 20% (v/v) to each well. The plates were then incubated at 37° C. for 2 h before the fluorescent reduction product was detected.
Media only background values were subtracted before the data was analysed using GraphPad Prism. Compound concentration values were plotted as log values to enable a dose-response curve to be fitted and IC50 values determined (Table 7).
The renal cell toxicity of the additional example compounds was assessed in an in vitro assay using the HK-2 cell as described in the example above.

[6] = test system: Klebsiella pneumoniae ATCC10031; assay type: in vivo; conditions: neutropenic mice, thigh, K. pneumoniae ATCC10031, total daily dosage 10 mg/Kg; Table 5B
Protocol: Groups of 5 female specific-pathogen-free CD-1 mice weighing 22±2 g were used. The animals were made neutropenic by intraperitoneal administration of cyclophosphamide on days −4 (150 mg/kg) and −1 (100 mg/kg). […] Examples 2, 4, 5, 6, 7, 8, 10, 11 and polymyxin B were prepared in Normal Saline at 2 mg/mL and the solution was adjusted to pH 6-7 by addition of 0.1M H2SO4 or 4.2% NaHCO3 as required. Twenty-four hours after infection, the mice were euthanized humanely. The muscle of the right thigh of each animal was harvested, homogenized, serially diluted and plated on Brain Heart Infusion agar+0.5% charcoal (w/v) for CFU determination. Decrease of the total CFU of right thigh as compared to control counts at 24 hrs post-infection was determined for each dose group. […] Using the same procedure as described above, the in vivo efficacy of three compounds of the invention (Examples 2,6, and 14) was evaluated in a mouse thigh infection model of Klebsiella pneumoniae ATCC10031, using Colistin (Polymyxin E) as comparator.

E. coli ATCC700928 = assay: MIC susceptibility testing, broth microdilution in CaMHB; assay type: cell-based, Escherichia coli; conditions: Table 4A, different batches of cation-adjusted Muller-Hinton broth
In short: as §1

E. coli NCTC12900 = assay: as above; assay type: cell-based, Escherichia coli; conditions: Table 4A, different batches of cation-adjusted Muller-Hinton broth
In short: as §1

E. coli NCTC9001 = assay: as above; assay type: cell-based, Escherichia coli; conditions: Table 4A, different batches of cation-adjusted Muller-Hinton broth
In short: as §1

E. coli ATCC25922 = assay: as above; assay type: cell-based, Escherichia coli; conditions: Table 4A, different batches of cation-adjusted Muller-Hinton broth
In short: as §1

K. pneumoniae NCTC8172 = assay: as above; assay type: cell-based, Klebsiella pneumoniae; conditions: Table 4A, different batches of cation-adjusted Muller-Hinton broth
In short: as §1

K. pneumoniae NCTC7427 = assay: as above; assay type: cell-based, Klebsiella pneumoniae; conditions: Table 4A, different batches of cation-adjusted Muller-Hinton broth
In short: as §1

K. pneumoniae ATCC 4352 = assay: as above; assay type: cell-based, Klebsiella pneumoniae; conditions: K. pneumoniae ATCC4352; Table 4A, different batches of cation-adjusted Muller-Hinton broth
In short: as §1

A. baumannii NCTC13423 = assay: as above; assay type: cell-based, Acinetobacter baumannii; conditions: Table 4A, different batches of cation-adjusted Muller-Hinton broth
In short: as §1

A. baumannii ATCCBAA-747 = assay: as above; assay type: cell-based, Acinetobacter baumannii; conditions: Table 4A, different batches of cation-adjusted Muller-Hinton broth
In short: as §1

A. baumannii NCTC7844 = assay: as above; assay type: cell-based, Acinetobacter baumannii; conditions: Table 4A, different batches of cation-adjusted Muller-Hinton broth
In short: as §1

Colistin [reference compound]
MIC (P. aeruginosa ATCC 9721): 0.5 micrograms/mL | MIC (P. aeruginosa ATCC10145): 0.5 micrograms/mL | MIC [1]: 0.5 micrograms/mL | MIC (P. aeruginosa ATCC27853): 0.5 micrograms/mL | MIC50 Clinical isolates ([2]; clinical isolates): 2 µg/mL | MIC90 Clinical isolates ([2]; clinical isolates): 2 µg/mL | MIC Range Clinical isolates ([2]; clinical isolates): 0.5 to 4 µg/mL | MIC50 Resistant strains ([2]; resistant strains): 1 µg/mL | MIC90 Resistant strains ([2]; resistant strains): 1 µg/mL | MIC Range Resistant strains ([2]; resistant strains): 0.25 to 2 µg/mL | MIC50 Clinical isolates ([3]; clinical isolates): 2 µg/mL | MIC90 Clinical isolates ([3]; clinical isolates): 4 µg/mL | MIC Range Clinical isolates ([3]; clinical isolates): 0.25 to 4 µg/mL | MIC50 Resistant strains ([3]; resistant strains): 2 µg/mL | MIC90 Resistant strains ([3]; resistant strains): 2 µg/mL | MIC Range Resistant strains ([3]; resistant strains): 0.5 to 2 µg/mL | MIC50 Clinical isolates ([4]; clinical isolates): 2 µg/mL | MIC90 Clinical isolates ([4]; clinical isolates): 2 µg/mL | MIC Range Clinical isolates ([4]; clinical isolates): 0.5 to 4 µg/mL | MIC50 Resistant strains ([4]; resistant strains): 2 µg/mL | MIC90 Resistant strains ([4]; resistant strains): 2 µg/mL | MIC Range Resistant strains ([4]; resistant strains): 1 to 4 µg/mL | MIC50 Clinical isolates ([5]; clinical isolates): 2 µg/mL | MIC90 Clinical isolates ([5]; clinical isolates): 4 µg/mL | MIC Range Clinical isolates ([5]; clinical isolates): 1 to 16 µg/mL | MIC50 Resistant strains ([5]; resistant strains): 2 µg/mL | MIC90 Resistant strains ([5]; resistant strains): 8 µg/mL | IC50 HK-2 cells (HK-2 cell line): 28^a μg/mL | Mean log10 CFU reduction vs. control [6]: 2.60 log10 CFU | MIC (E. coli ATCC700928): 0.25 micrograms/mL | MIC (E. coli NCTC12900): 0.5 micrograms/mL | MIC (E. coli NCTC9001): 2 micrograms/mL | MIC (E. coli ATCC25922): 1 micrograms/mL | MIC (K. pneumoniae NCTC8172): 0.5 micrograms/mL | MIC (K. pneumoniae NCTC7427): 0.25 micrograms/mL | MIC (K. pneumoniae ATCC 4352): 0.125 micrograms/mL | MIC (A. baumannii NCTC13423): <0.06 micrograms/mL | MIC (A. baumannii ATCCBAA-747): 0.25 micrograms/mL | MIC (A. baumannii NCTC7844): 0.125 micrograms/mL

— patent US9234006B2, “Compounds” (Novacta Biosystems Limited, priority 2011, dated 2016)
